Publication PMC13233820, “Recruitment of Mre11 to recombination sites during meiosis” (Nature Communications, 2026)

Experiments:
[1] = system: Mre11^myc yeast strains; assay: MMS and CPT sensitivity assay (spotted serial dilutions); assay type: cell-based, Saccharomyces cerevisiae; details: ten-fold serial dilutions on YPD; for Sensitivity of mre11-ΔC49 mutant (in words): mre11-ΔC49 strain; for Sensitivity of mre11-ΔIDR mutant (in words): mre11-ΔIDR strain compared with wild type
Description: (§1) Following standard protocols, strains were patched on YPG plates, mated and streaked on YPD plates, and selected diploid colonies grown in liquid YPD at 30 °C, 250 rpm, overnight. For meiotic synchronization, diploid cultures grown overnight in YPD were transferred to YPA (1% yeast extract, 2% peptone, 1% potassium acetate) at OD600 0.2 and grown for 12–14 h at 30 °C, 250 rpm. Once the cultures reached OD600 between 1.2–1.6, cells were washed once with prewarmed sterile water and immediately transferred to sporulation medium supplemented with amino acids (320 µL amino acid complementation media for 100 mL of sporulation media (SPM)) and were kept shaking at 30 °C, 250 rpm during the entire meiotic time-course. For MMS and CPT (Sigma) sensitivity assays, serial dilutions of overnight cultures were spotted on freshly prepared YPD-MMS or YPD-CPT plates containing the indicated percentage of MMS or CPT, respectively. Plates were grown for two days at 30 °C. For immunofluorescence of vegetatively growing cells, overnight cultures were refreshed by diluting to OD600 0.2 and grown for 3-4 hours to reach OD600 1.2–1.4 before subjecting to MMS or MMS followed by 5% 1,6-hexanediol treatment. For 5% 1,6-hexanediol treatment, cells were first converted to spheroplasts and then treated with 5% 1,6-hexanediol for 4-5 min. Spheroplasts were then immediately washed, lysed, and fixed using the protocol described below.

[2] = system: MMS-induced Mre11^myc foci in vegetatively growing yeast; assay: Immunofluorescence of MMS-induced Mre11myc foci, vegetative yeast nuclear spreads; assay type: cell-based, Saccharomyces cerevisiae; details: MMS-treated, no hexanediol
Description: as §1
Meiotic cultures were harvested 4 h after transfer to SPM, washed with sterile cold water, and resuspended in 1 M sorbitol, 1 × PBS (pH 7), 10 mM DTT, 0.5 mg/ml zymolyase 20 T, and incubated for 30 mins at 30 °C with gentle shaking. […]
Slides were blocked with 90% FBS, 1 × PBS for 1 h at room temperature in a humid chamber and then incubated with primary antibody (mouse mAb anti-myc, 1:200 (2276S, Cell Signaling Technology), rabbit anti-phospho H2A-S129, 1:200 (ab15083, abcam)) diluted in 3% BSA, 1 × PBS in a humid chamber for 2 h at 37 °C or overnight at 4 °C. […] Images were captured on a Zeiss Axio Observer with a 100 ×/1.4 NA oil immersion objective and were analyzed in ImageJ.

[3] = system: MRX condensates; assay type: biochemical, Saccharomyces cerevisiae; details: 500 mM NaCl, brief exposure
Description: Experiments were performed without PEG. b, d Effect of DNase I, in the absence of PEG, on (b) Mre11 (n = 9 (no treatment) and 11 (DNase I)) and (d) MRX (n = 9 (no treatment) and 11 (DNase I)) condensates. Condensates were pre-assembled for 20 min with 5.7 nM pUC19 prior to challenge. Quantification represents total foci intensity (green) in a field of view and total number of foci per 1000 µm^2 (magenta). Foci intensity is normalized to the mean intensity of samples with DNA for (a, c) and untreated samples for (b, d). Error bars represent mean ± SD from the indicated (n) fields of view. e, f Effect of the presence of 5% PEG-3350 on (e) Mre11 (n = 12) and (f) MRX (n = 11) condensate formation. Quantification represents total foci intensity (green) in a field of view (normalized to the mean of + PEG images) and total number of foci per 1000 µm^2 (magenta). Error bars represent mean ± SD from the indicated (n) fields of view. g–j Effect of challenge with 5% 1,6-hexanediol and 0.5 M NaCl on (g, h) Mre11 and (i, j) MRX condensates. Condensates were assembled for 20 min prior to challenge and incubated for 15 min and 10 min, respectively, after challenge. […]
(§2) Proteins were diluted to a 10 × stock of their appropriate working concentrations in their respective storage buffers. […] Images were analyzed with ImageJ using a custom-made script. […] Data were analyzed using Graphpad Prism 10.4.0.

[4] = system: Mre11 condensates; assay type: biochemical, Saccharomyces cerevisiae; details: 500 mM NaCl, brief exposure
Description: Experiments were performed without PEG. b, d Effect of DNase I, in the absence of PEG, on (b) Mre11 (n = 9 (no treatment) and 11 (DNase I)) and (d) MRX (n = 9 (no treatment) and 11 (DNase I)) condensates. Condensates were pre-assembled for 20 min with 5.7 nM pUC19 prior to challenge. Quantification represents total foci intensity (green) in a field of view and total number of foci per 1000 µm^2 (magenta). Foci intensity is normalized to the mean intensity of samples with DNA for (a, c) and untreated samples for (b, d). Error bars represent mean ± SD from the indicated (n) fields of view. e, f Effect of the presence of 5% PEG-3350 on (e) Mre11 (n = 12) and (f) MRX (n = 11) condensate formation. Quantification represents total foci intensity (green) in a field of view (normalized to the mean of + PEG images) and total number of foci per 1000 µm^2 (magenta). Error bars represent mean ± SD from the indicated (n) fields of view. g–j Effect of challenge with 5% 1,6-hexanediol and 0.5 M NaCl on (g, h) Mre11 and (i, j) MRX condensates. […] In the control reaction, an equivalent volume (1/20) of water was added instead of hexanediol. […]
as §2

[5] = system: supercoiled pUC19 plasmid DNA; assay: In vitro condensation assay of MRX complex (fluorescence microscopy); assay type: biochemical; details: in the presence of plasmid DNA
Description: Fig. 1 Mre11 and the MRX complex assemble DNA-dependent condensates in vitro. a, c Effect of the presence of plasmid DNA on condensation of (a) Alexa488-labeled Mre11 (n = 11 and 9 fields of view for reactions without and with DNA, respectively) and (c) eGFP-tagged MRX (n = 11 (- DNA) and 9 ( + DNA)). Experiments were performed without PEG. b, d Effect of DNase I, in the absence of PEG, on (b) Mre11 (n = 9 (no treatment) and 11 (DNase I)) and (d) MRX (n = 9 (no treatment) and 11 (DNase I)) condensates. Condensates were pre-assembled for 20 min with 5.7 nM pUC19 prior to challenge. Quantification represents total foci intensity (green) in a field of view and total number of foci per 1000 µm^2 (magenta). Foci intensity is normalized to the mean intensity of samples with DNA for (a, c) and untreated samples for (b, d). […] Quantification represents total foci intensity (green) in a field of view (normalized to the mean of + PEG images) and total number of foci per 1000 µm^2 (magenta). […]
Fig. 2 The C-terminal IDR of Mre11 is required for condensation. a AlphaFold2 predicted model of Mre11 (AF-P32829-F1-v4). […] Quantification represents total fluorescence intensity (green) in a field of view and total number of foci per 1000 µm^2 (magenta). […]

| Molecule | Sensitivity of mre11-ΔC49 mutant (in words) [1] | Sensitivity of mre11-ΔIDR mutant (in words) [1] | other results |
| --- | --- | --- | --- |
| CC[C@@]1(O)C(=O)OCc2c1cc1n(c2=O)Cc2cc3ccccc3nc2-1 [CPT, camptothecin] | resistant | as resistant to MMS or CPT as wild-type cells | – |
| COS(C)(=O)=O [MMS, methylmethanesulfonate] | resistant | as resistant to MMS or CPT as wild-type cells | Percentage of aggregates [2]: 0 |
| [Cl-].[Na+] [NaCl] | – | – | Effect on MRX foci intensity (in words) [3]: strongly reduced foci intensity; Effect on Mre11 foci intensity (in words) [4]: strongly reduced foci intensity |
| MRX: Mre11-Rad50-Xrs2 complex, recombinant from Sf9 cells | – | – | Condensate formation (in words) [5]: form large clusters visible by fluorescence microscopy |
